ChEMBL document CHEMBL5356945, “Discovery of PFI-6, a small-molecule chemical probe for the YEATS domain of MLLT1 and MLLT3” (Bioorg Med Chem Lett, 2024)
Converted amounts (≈) assume the structure as drawn.

Experiments:
Protein ENL [1] = target: T1, Protein ENL (Homo sapiens, UniProt Q03111); experiment: Inhibition of His-tagged MLLT1 YD domain (unknown origin) assessed as disruption of protein binding to histone peptide using biotinylated histone peptide as substrate by AlphaScreen assay
T1 sequence (Q03111 whole entry): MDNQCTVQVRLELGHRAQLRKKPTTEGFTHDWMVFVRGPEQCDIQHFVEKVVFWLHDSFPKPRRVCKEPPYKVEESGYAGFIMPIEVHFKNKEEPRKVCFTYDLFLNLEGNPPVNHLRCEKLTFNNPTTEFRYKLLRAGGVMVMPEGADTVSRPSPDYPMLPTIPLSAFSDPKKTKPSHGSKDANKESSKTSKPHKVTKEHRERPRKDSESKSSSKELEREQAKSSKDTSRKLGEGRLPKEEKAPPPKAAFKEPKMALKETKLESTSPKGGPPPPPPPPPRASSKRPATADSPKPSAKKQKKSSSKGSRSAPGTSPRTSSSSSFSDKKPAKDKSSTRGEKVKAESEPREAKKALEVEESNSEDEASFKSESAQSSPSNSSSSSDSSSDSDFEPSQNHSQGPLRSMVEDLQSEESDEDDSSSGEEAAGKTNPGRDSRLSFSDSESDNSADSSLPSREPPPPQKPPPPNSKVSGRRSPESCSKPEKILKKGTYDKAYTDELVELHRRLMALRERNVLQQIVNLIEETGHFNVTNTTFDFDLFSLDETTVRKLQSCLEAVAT

Protein ENL [2] = target: T1, Protein ENL; experiment: Inhibition of MLLT1 YD domain (unknown origin) assessed as disruption of histone peptide binding using histone peptide as substrate by HTRF assay
Protein AF-9 [3] = target: T2, Protein AF-9 (Homo sapiens, UniProt P42568); experiment: Inhibition of MLLT3 YD domain (unknown origin) assessed as disruption of histone peptide binding using histone peptide as substrate by HTRF assay
T2 sequence (P42568 whole entry): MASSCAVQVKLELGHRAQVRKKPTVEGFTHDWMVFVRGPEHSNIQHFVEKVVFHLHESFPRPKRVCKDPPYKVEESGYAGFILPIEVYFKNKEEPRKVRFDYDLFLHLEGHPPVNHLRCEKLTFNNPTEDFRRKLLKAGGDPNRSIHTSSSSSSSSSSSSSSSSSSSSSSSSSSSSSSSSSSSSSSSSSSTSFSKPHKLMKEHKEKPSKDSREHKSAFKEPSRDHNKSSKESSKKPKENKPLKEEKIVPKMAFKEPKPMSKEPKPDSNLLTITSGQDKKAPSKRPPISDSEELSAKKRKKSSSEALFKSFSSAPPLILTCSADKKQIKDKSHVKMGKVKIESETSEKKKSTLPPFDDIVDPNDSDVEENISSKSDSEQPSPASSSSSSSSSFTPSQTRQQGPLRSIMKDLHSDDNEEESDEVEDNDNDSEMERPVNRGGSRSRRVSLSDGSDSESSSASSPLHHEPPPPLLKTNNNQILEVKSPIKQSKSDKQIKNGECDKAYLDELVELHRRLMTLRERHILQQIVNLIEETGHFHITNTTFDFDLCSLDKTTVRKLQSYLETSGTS

[4] = target: T3, YEATS domain-containing protein 2 (Homo sapiens, UniProt Q9ULM3); experiment: Inhibition of YEATS2 YD domain (unknown origin) assessed as disruption of histone peptide binding using histone peptide as substrate by HTRF assay
T3 sequence (Q9ULM3 whole entry): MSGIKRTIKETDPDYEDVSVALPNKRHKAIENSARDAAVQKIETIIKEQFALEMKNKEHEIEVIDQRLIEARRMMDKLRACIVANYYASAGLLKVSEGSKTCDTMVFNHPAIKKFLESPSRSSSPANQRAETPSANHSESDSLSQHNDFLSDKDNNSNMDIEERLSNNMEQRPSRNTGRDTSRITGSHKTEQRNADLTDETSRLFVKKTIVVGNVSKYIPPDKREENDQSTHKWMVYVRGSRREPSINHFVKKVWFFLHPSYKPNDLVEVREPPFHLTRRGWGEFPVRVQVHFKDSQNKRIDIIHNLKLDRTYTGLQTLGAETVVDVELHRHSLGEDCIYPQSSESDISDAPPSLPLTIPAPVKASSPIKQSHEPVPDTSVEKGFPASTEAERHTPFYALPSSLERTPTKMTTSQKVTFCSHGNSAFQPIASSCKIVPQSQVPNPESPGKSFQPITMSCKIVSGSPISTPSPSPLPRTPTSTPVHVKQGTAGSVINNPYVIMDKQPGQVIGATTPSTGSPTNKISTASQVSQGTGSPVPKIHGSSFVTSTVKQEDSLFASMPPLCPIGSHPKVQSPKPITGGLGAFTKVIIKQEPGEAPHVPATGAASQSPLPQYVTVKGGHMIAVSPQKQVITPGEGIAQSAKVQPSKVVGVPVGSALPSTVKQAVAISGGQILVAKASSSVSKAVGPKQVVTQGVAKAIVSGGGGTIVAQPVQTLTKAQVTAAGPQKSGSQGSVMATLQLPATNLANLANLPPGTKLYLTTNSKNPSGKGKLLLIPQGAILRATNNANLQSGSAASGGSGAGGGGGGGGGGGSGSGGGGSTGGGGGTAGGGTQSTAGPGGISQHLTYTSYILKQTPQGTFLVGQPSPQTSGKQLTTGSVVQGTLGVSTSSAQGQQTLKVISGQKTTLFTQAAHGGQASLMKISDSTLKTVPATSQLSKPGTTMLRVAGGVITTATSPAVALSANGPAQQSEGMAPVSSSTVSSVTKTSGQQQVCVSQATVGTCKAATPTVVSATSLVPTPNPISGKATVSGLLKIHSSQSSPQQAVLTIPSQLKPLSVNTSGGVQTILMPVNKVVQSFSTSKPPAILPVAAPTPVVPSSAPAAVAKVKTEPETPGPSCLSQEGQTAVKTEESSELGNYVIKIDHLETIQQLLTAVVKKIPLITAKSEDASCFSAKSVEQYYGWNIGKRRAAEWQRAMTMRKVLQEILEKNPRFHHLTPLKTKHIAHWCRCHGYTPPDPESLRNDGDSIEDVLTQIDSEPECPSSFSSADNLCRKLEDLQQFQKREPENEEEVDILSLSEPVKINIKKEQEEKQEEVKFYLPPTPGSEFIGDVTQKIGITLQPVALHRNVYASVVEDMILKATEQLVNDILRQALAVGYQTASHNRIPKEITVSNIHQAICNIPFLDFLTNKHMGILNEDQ

[5] = target: T4, YEATS domain-containing protein 4 (Homo sapiens, UniProt O95619); experiment: Inhibition of YEATS4 YD domain (unknown origin) assessed as disruption of histone peptide binding using histone peptide as substrate by HTRF assay
T4 sequence (O95619 whole entry, the tested form may be a part): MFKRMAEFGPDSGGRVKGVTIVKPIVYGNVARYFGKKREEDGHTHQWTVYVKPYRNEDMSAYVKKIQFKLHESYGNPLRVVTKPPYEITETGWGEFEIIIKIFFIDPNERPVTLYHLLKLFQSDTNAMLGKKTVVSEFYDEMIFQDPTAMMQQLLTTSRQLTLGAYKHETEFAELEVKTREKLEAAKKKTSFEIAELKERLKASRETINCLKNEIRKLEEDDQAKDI

[6] = target: T5, Protein ENL (Homo sapiens) (UniProt Q03111); experiment: Inhibition of His-tagged MLLT1 YD domain (unknown origin) assessed as disruption of protein binding to histone peptide using biotinylated histone peptide as substrate at 100 uM by AlphaScreen assay
T5 sequence (whole entry): T1 sequence (Q03111 whole entry)

Protein AF-9 [7] = target: T2, Protein AF-9; experiment: Binding affinity to MLLT3 in human HEK293 cells by NanoBRET assay; assay type: cell-based
[8] = Lipophilicity, logD of the compound by shake flask method; assay type: physicochemical; conditions: octanol/water
[9] = target: T5, Protein ENL (Homo sapiens); experiment: Binding affinity to MLLT1 YD domain (unknown origin) assessed as change in melting temperature by thermal shift assay
[10] = target: T6, YEATS domain-containing protein 2 (Homo sapiens) (UniProt Q9ULM3); experiment: Binding affinity to YEATS2 YD domain (unknown origin) assessed as change in melting temperature by thermal shift assay
T6 sequence (whole entry): T3 sequence (Q9ULM3 whole entry)

[11] = target: T4, YEATS domain-containing protein 4; experiment: Binding affinity to YEATS4 YD domain (unknown origin) assessed as change in melting temperature by thermal shift assay
[12] = Passive apparent permeability in dog MDCK cells; assay type: ADME, cell-based, Canis lupus familiaris
[13] = Kinetic solubility of compound at pH 7.4; assay type: physicochemical; conditions: buffer, read-out: Kinetic_solubility
[14] = Metabolic stability in human hepatocytes assessed as apparent intrinsic clearance measured per million cells; assay type: ADME, cell-based, Hepatocyte
[15] = target: Voltage-gated inwardly rectifying potassium channel KCNH2 (Homo sapiens, UniProt Q12809); experiment: Inhibition of human ERG assessed as inhibition constant by patch-clamp assay; assay type: toxicity
Chain of Voltage-gated inwardly rectifying potassium channel KCNH2 (Q12809 whole entry): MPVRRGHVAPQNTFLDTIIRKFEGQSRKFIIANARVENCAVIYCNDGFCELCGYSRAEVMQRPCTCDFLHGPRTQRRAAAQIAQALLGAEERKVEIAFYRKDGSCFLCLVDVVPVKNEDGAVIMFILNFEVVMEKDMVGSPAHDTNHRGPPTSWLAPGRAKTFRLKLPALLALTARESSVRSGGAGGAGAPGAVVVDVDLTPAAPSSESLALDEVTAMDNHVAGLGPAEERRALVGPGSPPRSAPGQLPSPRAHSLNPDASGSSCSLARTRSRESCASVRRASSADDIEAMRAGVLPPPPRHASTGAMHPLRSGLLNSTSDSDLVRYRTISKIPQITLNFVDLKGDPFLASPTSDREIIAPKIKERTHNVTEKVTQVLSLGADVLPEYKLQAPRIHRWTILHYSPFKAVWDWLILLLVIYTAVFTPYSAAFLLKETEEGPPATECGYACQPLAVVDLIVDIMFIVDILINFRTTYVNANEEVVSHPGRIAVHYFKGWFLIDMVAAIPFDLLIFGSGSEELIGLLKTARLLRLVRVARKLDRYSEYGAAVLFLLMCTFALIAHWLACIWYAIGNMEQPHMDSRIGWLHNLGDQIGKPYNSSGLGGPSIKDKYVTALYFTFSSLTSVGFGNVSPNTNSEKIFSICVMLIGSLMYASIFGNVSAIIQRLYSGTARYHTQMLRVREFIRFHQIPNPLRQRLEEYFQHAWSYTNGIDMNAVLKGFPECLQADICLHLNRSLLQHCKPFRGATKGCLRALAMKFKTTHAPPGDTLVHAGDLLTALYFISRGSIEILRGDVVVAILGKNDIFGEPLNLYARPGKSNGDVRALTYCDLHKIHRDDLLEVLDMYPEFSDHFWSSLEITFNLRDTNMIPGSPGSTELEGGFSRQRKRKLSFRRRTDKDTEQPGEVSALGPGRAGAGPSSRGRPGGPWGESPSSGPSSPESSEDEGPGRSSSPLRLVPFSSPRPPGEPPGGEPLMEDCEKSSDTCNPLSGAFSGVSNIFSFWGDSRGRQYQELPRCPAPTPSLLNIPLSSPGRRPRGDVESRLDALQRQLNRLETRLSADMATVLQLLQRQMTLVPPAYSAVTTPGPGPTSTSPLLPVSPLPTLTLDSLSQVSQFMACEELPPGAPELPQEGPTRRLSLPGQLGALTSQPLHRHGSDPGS

[16] = Cytotoxicity against human THLE cells assessed as decrease in cellular ATP by CellTiter-Glo assay; assay type: toxicity, cell-based
[17] = target: T7, Protein AF-9 (Homo sapiens) (UniProt P42568)
T7 sequence (whole entry): T2 sequence (P42568 whole entry)
Description: Binding affinity to MLLT3 YD domain (unknown origin) assessed as change in melting temperature by thermal shift assay

Compound | IC50 (Protein ENL [1]) | IC50 (Protein ENL [2]) | IC50 (Protein AF-9 [3]) | IC50 [4] | IC50 [5] | also measured
O=C(NC1CCCC1)c1cc(-c2ccc(Cl)c(O)c2)on1 | – | 0.75 µM | 0.5 µM | > 30 µM | > 5.8 µM | –
C/C=C/C(=O)NC1CCCC1 | – | – | – | – | – | inhibition [6]: 55%
O=C(NC1CCCC1)c1cc(-c2cc(O)c3cccnc3c2)on1 | – | 0.26 µM | 0.2 µM | > 30 µM | > 30 µM | –
O=C(NC1CCCC1)c1ccc2snnc2c1 | 3 µM | – | – | – | – | –
O=C(NC1CCCC1)c1cnn(-c2cccc(O)c2)c1 | – | 3.4 µM | 2.4 µM | > 30 µM | > 30 µM | –
O=C(NC1CCCC1)c1cc(-c2cccc(O)c2)n[nH]1 | – | 2.5 µM | 3.4 µM | > 30 µM | > 30 µM | –
C[C@H]1CCCN1Cc1nc2cc(NC(=O)c3ccc4c(cnn4C)c3)ccc2[nH]1 | – | – | – | – | – | IC50 (Protein AF-9 [7]): 0.6 µM
O=C(NC1CCCC1)c1cc(-c2cccc(O)c2Cl)on1 | – | > 30 µM | > 30 µM | > 30 µM | > 30 µM | –
CN(C)C(=O)c1ccc(-c2cc(C(=O)N[C@@H]3CCc4ccccc43)no2)cc1O | – | – | – | > 30 µM | > 30 µM | logD [8]: 3.3; ΔTm [9]: 3.61 °C; ΔTm [10]: 0 °C; ΔTm [11]: -0.02 °C; Papp [12]: 27 ×10⁻⁶ cm/s; solubility kinetic [13]: 3000 µM (≈ 1170 µg/mL); CLH(app) [14]: 43 µL/min; Ki [15]: > 100 µM; IC50 [16]: > 100 µM; ΔTm [17]: 5.13 °C
O=C(NC1CCCC1)c1cc2cc(F)ccc2[nH]1 | 5.64 µM | – | – | – | – | –
O=C(NC1CCCC1)c1cn(-c2cccc(O)c2)cn1 | – | 0.97 µM | 0.5 µM | > 26 µM | > 30 µM | –

Further lines, with some results ahead:

IC50 (Protein ENL [1]) | IC50 (Protein ENL [2]) | IC50 (Protein AF-9 [3]) | IC50 [4] | IC50 [5] | Compound | also measured
28.9 µM | – | – | – | – | O=C(NC1CC1)c1cc(-c2cccc(O)c2)on1 | –
21.9 µM | – | – | – | – | O=C(NCC1CC1)c1cc(-c2cccc(O)c2)on1 | –
1.1 µM | 0.93 µM | 0.63 µM | > 30 µM | > 30 µM | O=C(NC1CCCC1)c1cc(-c2cccc(O)c2)on1 | –
– | 0.16 µM | 0.12 µM | > 30 µM | > 30 µM | CN(C)C(=O)c1ccc(-c2cc(C(=O)NC3CCCC3)no2)cc1O | –
1.14 µM | – | – | – | – | O=C(NC1CCC1)c1cc(-c2cccc(O)c2)on1 | –
– | > 30 µM | > 30 µM | > 30 µM | > 30 µM | CN(C)C(=O)c1ccc(-c2cc(C(=O)N(C)C3CCCC3)no2)cc1O | IC50 (Protein AF-9 [7]): > 30 µM
6.9 µM | – | – | – | – | O=C(NC1CCCC1)c1cc(-c2ccc(O)cc2)on1 | –
> 30 µM | – | – | – | – | CN(C(=O)c1cc(-c2cccc(O)c2)on1)C1CCCC1 | –
9.13 µM | – | – | – | – | CC(C)NC(=O)c1cc(-c2cccc(O)c2)on1 | –
